What all share (assay): NCI tumour cell line growth inhibition, 48 h
Assay [1] has as its system BT-549 breast.
For assay [2], the system named is HT29 colon.
The subject of assay [3] is SW-620 colon.
In assay [4] the test system is CCRF-CEM leukemia.
Assay [5] has as its system HL-60(TB) leukemia.
Assay [6] concerns U251 CNS.
In assay [7] the test system is HCC-2998 colon.
Assay [8] concerns T-47D breast.
Assay [9] deals with SR leukemia.
The test system of assay [10] is CAKI-1 renal.
The subject of assay [11] is IGROV1 ovarian.
The subject of assay [12] is UACC-257 melanoma.
The test system of assay [13] is LOX IMVI melanoma.
In assay [14] the test system is SK-MEL-28 melanoma.
For assay [15], the system named is OVCAR-4 ovarian.
The subject of assay [16] is MDA-MB-231 breast.
The subject of assay [17] is RPMI-8226 leukemia.
In assay [18] the test system is A498 renal.

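Growth conditions: 96-well plates. Treatment: test compound, 48 hours, 5 concentrations. Analysis: linear interpolation between bracketing concentrations; unreached endpoints set to highest concentration. TGI is the concentration that stops growth completely.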 A value given as a limit tells only on which side of the number the result lay.

Take `COC(=O)C(Cc1c(C2Nc3ccccc3C2CC(NC(=O)CNC(C)=O)C(=O)OC)[nH]c2ccccc12)NC(=O)CNC(C)=O` (stereo not given): the TGI in [1], in assay [2], in assay [3], in assay [4], in assay [5] and in assay [6] was > 100 µM in each case. In addition, the TGI in [7], in [8], in assay [9], in assay [10], in [11] and in assay [12] was > 100 µM in each case. Also, the TGI in [13], in assay [14], in assay [15], in [16], in assay [17] and in assay [18] was > 100 µM each time.

Regarding `Cc1[nH]c2c(c1C)S(=O)(=O)c1cc3ccccc3nc1N2`, the TGI in assay [1] was > 100 µM; in [2] it was 28.2 µM; in assay [3], > 100 µM; in assay [4] it was 45.8 µM; in assay [6] it was 23.8 µM; in [7], > 100 µM. The TGI is > 100 µM in [8]; > 100 µM in assay [9]; > 100 µM in [10]; 28 µM in assay [11]; > 100 µM in assay [12]; 36.4 µM in assay [13]. The TGI in assay [14] was 67.3 µM; in [15] it was 32.4 µM; in assay [16] it was 76.1 µM; in assay [17] it was 40.4 µM; in [18], > 100 µM.

For `N#CCc1n[nH]c(Cc2ccccc2)n1`, the TGI in assay [1], in assay [2], in assay [3], in [4], in [5] and in assay [6] was > 100 µM each time. The TGI in assay [7], in assay [8], in assay [9], in assay [10], in [11] and in assay [12] was > 100 µM throughout. Besides, the TGI in [13], in assay [14], in assay [15], in [16] and in [18] was > 100 µM throughout.

Consider `COC(=O)[C@]1(c2cc3ccccc3n2S(=O)(=O)c2ccccc2)CC2CN(C(C)=O)C1CC2=O` (stereo not given in full), for which the TGI in [1] is 7.24 µM; in assay [2] it was 4.55 µM; in assay [3], > 20.9 µM; in [5] it was 4.64 µM; in assay [6], 3.08 µM; in [7], 14 µM. Moreover, the TGI worked out at 7.05 µM in assay [8]; 5.12 µM in assay [9]; 7.79 µM in assay [10]; 5.22 µM in [11]; 7.8 µM in [12]; 3.8 µM in [13]. The TGI was found to be 11.7 µM in assay [14]; 10.7 µM in assay [15]; 7.4 µM in [16]; 4.26 µM in [17]; 21.4 µM in assay [18].

Turning to `CC(=O)OCCCOCn1c(Cc2ccccc2)c(C)c(=O)[nH]c1=O`, the TGI in [1], in assay [2], in [3], in [4], in [6] and in assay [7] was > 100 µM each time. Moreover, the TGI in [8], in assay [9], in assay [10], in assay [11], in assay [12] and in [13] was > 100 µM in each case. In addition, the TGI in assay [14], in assay [15], in assay [16], in assay [17] and in assay [18] was > 100 µM throughout.

Consider `O=C(c1ccccc1)N1CCN(C(=S)N(C(=O)c2ccccc2)c2ccccc2)C1=S`, for which the TGI in assay [1] was 13.7 µM; in assay [2], 31.2 µM; in assay [3], > 43.5 µM; in assay [4], > 25.8 µM; in assay [5] it was 3.81 µM; in assay [6], 22.6 µM. In addition, the TGI in assay [7] was 14.5 µM; in [8], > 31.9 µM; in assay [9], > 100 µM; in assay [10], 7.5 µM; in assay [11] it was 12.6 µM; in assay [12], 22.4 µM. In addition, the TGI was 3.67 µM in assay [13]; 9.55 µM in assay [14]; 10.9 µM in assay [15]; > 42.5 µM in assay [16]; 13.4 µM in assay [18].

In the case of `O=[N+]([O-])C1CC/C(=N/O)c2nonc21` (stereo not given), the TGI in [1], in [2], in assay [3], in assay [4], in [5] and in assay [6] was > 10 µM in each case. Also, the TGI in [7], in assay [8], in assay [9], in [10], in assay [11] and in assay [12] was > 10 µM each time. The TGI in assay [14], in assay [15], in assay [16], in [17] and in [18] was > 10 µM in each case.

On to `CCOC(=O)C1=CNC(C(=O)OCC)C1c1cccn1-c1ccc(Cl)cc1[N+](=O)[O-]` (stereo not given), for which the TGI in assay [1] was 61.2 µM; in assay [2], 30.8 µM; in assay [3] it was > 100 µM; in [4], 66.1 µM; in [6] it was 41.1 µM; in assay [7], 51.9 µM. Besides, the TGI in assay [8] is > 100 µM; in assay [9], 61.8 µM; in assay [10], 58.6 µM; in assay [11], 29.9 µM; in assay [12], 70 µM; in assay [13] it was 29.4 µM. In addition, the TGI in assay [14] is 53.1 µM; in [15], 98.3 µM; in [16] it was 27.2 µM; in assay [18] it was > 100 µM.

`CCOC(=O)c1ccc(Nc2c3c(nc4ccccc24)CCCC3)cc1`: the TGI in [1], in assay [2], in [3], in [4], in [5] and in assay [6] was > 100 µM throughout. For the same molecule, the TGI in assay [7], in assay [8], in [9], in [10], in [11] and in [12] was > 100 µM in each case. The TGI is > 100 µM in [13]; > 100 µM in [14]; > 100 µM in assay [15]; > 100 µM in [16]; > 100 µM in assay [17]; > 92.2 µM in assay [18].

Regarding `CCCCC(C#N)(OP1(=O)OC(c2ccccc2)C(C)N1C)c1ccccc1` (stereo not given), the TGI in assay [1] amounted to 43.6 µM; in [2], 33.8 µM; in assay [3], 34.3 µM; in assay [4] it was 40.3 µM; in assay [5] it was 36 µM; in assay [6], 31.4 µM. Further, the TGI in assay [7] stood at 28.9 µM; in [8], 55.1 µM; in assay [9] it was 43.9 µM; in [10], 42.5 µM; in assay [11] it was 32.3 µM; in assay [12] it was 33.7 µM. Further, the TGI in assay [13] stood at 36.7 µM; in [14], 31.9 µM; in assay [16] it was 30.2 µM; in assay [17] it was 53.2 µM; in assay [18], 33.6 µM.

In the case of `COC(=O)c1c(O)ccc2c1c1c(n2Cc2ccccc2Cl)C(=O)c2ccccc2C1=O`, the TGI in assay [1] was 29.2 µM; in [2] it was 3.58 µM; in assay [4], 43.6 µM; in [5] it was 49.6 µM; in assay [6], 30.2 µM; in assay [7] it was 29.9 µM. The TGI in assay [8] turned out to be 27.4 µM; in assay [9], 47.8 µM; in assay [10], 27.4 µM; in assay [11] it was 28.3 µM; in assay [12], 32.8 µM; in [14] it was 29.4 µM. In addition, the TGI was 12.6 µM in assay [15], 32.3 µM in [16], 29.5 µM in assay [17] and 31.3 µM in assay [18].

As to `COC(=O)C1C/C(=C/N(C)C)C(=S)N1` (stereo not given), the TGI in assay [1], in assay [2], in assay [3], in [4], in assay [6] and in [7] was > 100 µM throughout. For the same molecule, the TGI in assay [8], in assay [9], in assay [10], in [11], in assay [12] and in assay [14] was > 100 µM throughout. In addition, the TGI in assay [15], in assay [16], in assay [17] and in assay [18] was > 100 µM throughout.

Take `CN(C)CCNC(=O)c1cccc2c(NCCN(C)C)c3ccccc3nc12`: the TGI in [1] was 18.4 µM; in [2], 5.34 µM; in [3], > 23.4 µM; in [4], > 100 µM; in assay [6] it was 8.72 µM; in assay [7], 3.73 µM. In addition, the TGI in assay [8] is > 83.6 µM; in [9] it was 3.45 µM; in assay [10], 12.7 µM; in [11], 10.8 µM; in assay [12] it was 17.3 µM; in assay [13], 4.75 µM. In addition, the TGI in [14] came to 28.6 µM; in [15], 8.68 µM; in [16], 4.58 µM; in assay [17], 7.92 µM; in assay [18], 4.74 µM.

Values taken from PubChem BioAssay (NCI).
